The record followed here is patent publication US7304046B2, “Phosphoramide compounds” (priority 1999, dated 2007).

The subject of one assay is HT-29 cells. Briefly: Test A: in vitro cytotoxicity, clonogenic survival of HT-29 cells. The settings on record: 2 h drug treatment, colonies after 10 days, concentration at which there is a 1% cell survival. The assay is classed as cell-based, human. From the text: (§1) Test A: In Vitro Cytotoxicity (Clonogenic Survival of HT-29 and BE Cells):
(§2) The human colon carcinoma cell line HT-29 was obtained from the American Type Culture Collection (ATCC), and the BE cell line was provided by Dr. D. Ross, University of Colorado. A modification of the procedure described by Miribelli et al Cancer Research, 1985, 45, 32–39 was used to determine the clonogenic survival of the cells. HT-29 and BE cells in exponential growth were suspended in unsupplemented Eagles MEM medium (10 mL) at a final density of 1.7–2×10^5 cells/mL. Unsupplemented medium contains Minimum Essential Medium (Gibco) and HEPES (0.02 M). The drug stock solutions (0.1–40 mM) were prepared using either ethanol or dimethyl sulfoxide as solvent. The maximum amount of DMSO or ethanol used in the drug treatments was 1% of the total volume. Appropriate volumes (6.5 to 100 μL) of the drug stock solution were added to five vials of the cell suspensions, to give five different final drug concentrations, and 100 μL of solvent was added to a sixth vial for a control. The treated cells were incubated for 2 h (37° C., 5% CO2). The cells were spun down and rinsed three times with supplemented medium (3 mL) and then diluted in 5 mL of supplemented medium. Supplemented medium is prepared by adding Fetal Bovine Serum (10%), gentamicin (0.05 mg/mL), L-glutamine (0.03 mg/mL), and sodium pyruvate (0.1 mM) to unsupplemented medium. The cells were counted using a Coulter Counter and then plated at 2–3 different densities for each drug concentration and incubated for 10 days. The colonies were stained with 0.5% crystal violet in 95% ethanol and those colonies comprised of 50 or more cells were counted using a microscope and pen-style counter. The LC99 of each compound (the concentration at which there is a 1% cell survival) was determined by plotting the log surviving fraction vs. drug concentration.

For a further assay, the system named is BE cells. Nature of the assay: Test A: in vitro cytotoxicity, clonogenic survival of BE cells. It is filed as cell-based. The note with it: 2 h drug treatment, colonies after 10 days, concentration at which there is a 1% cell survival.
Text: as §1, §2

In the next assay the test system is PaCa-2 (pancreas). Briefly: Growth inhibition, MTT assay, PaCa-2. It is filed as cell-based, human. The note with it: PaCa-2, 72-h drug exposure; for IC50: read-out: IC50 growth inhibitory activity. The method, then:
(§3) The growth inhibitory properties of representative compounds of the invention were also determined by evaluating their growth inhibitory activity against a series of human tumor cell lines using a 72-h drug exposure. Cell counts were measured using the MTT assay.

For a further assay, the system named is A498 (kidney). Nature of the assay: Growth inhibition, MTT assay, A498. The assay is classed as cell-based, human. The note with it: A498, 72-h drug exposure, read-out: IC50 growth inhibitory activity. The procedure: as §3
(In general: Tetrazolium assays rely on reduction of a dye to a coloured formazan, in cell work by metabolically active cells.)

The test system of another assay is UMUC3 (bladder). Briefly: Growth inhibition, MTT assay, UMUC3. It is filed as cell-based, human. The note with it: UMUC3, 72-h drug exposure; for IC50: read-out: IC50 growth inhibitory activity. The method, then:
as §3

The next assay relates to PC-3 (prostate). Briefly: Growth inhibition, MTT assay, PC-3. The note with it: PC-3, 72-h drug exposure, read-out: IC50 growth inhibitory activity. The assay is classed as cell-based, human. The procedure: as §3
A further assay has as its system MDA231 (breast). Briefly: Growth inhibition, MTT assay, MDA231. The assay is classed as cell-based, human. The settings on record: read-out: IC50 growth inhibitory activity. The procedure: as §3
Another assay relates to IGROV (ovarian). Briefly: Growth inhibition, MTT assay, IGROV. The assay is classed as cell-based, human. The note with it: 72-h drug exposure, read-out: IC50 growth inhibitory activity. The procedure:
as §3

The next assay relates to A549 (lung). Briefly: Growth inhibition, MTT assay, A549. The settings on record: A549, 72-h drug exposure, read-out: IC50 growth inhibitory activity. It is filed as cell-based, human. The procedure:
as §3

A further assay relates to HT-29 (colon). Briefly: Growth inhibition, MTT assay, HT-29. The assay is classed as cell-based, human. The settings on record: HT-29, 72-h drug exposure, read-out: IC50 growth inhibitory activity. The procedure: as §3
A further assay concerns human tumor cell lines. Nature of the assay: Growth inhibition, MTT assay, series of human tumor cell lines (all cell lines). It is filed as cell-based. The note with it: all cell lines of Table 2, 72-h drug exposure. The procedure: as §3
Where [1] appears, read: Homo sapiens, MDA-MB-231, MDA231, 72-h drug exposure.

For orientation: IC50 means the point on the concentration scale where inhibition reaches its midpoint.

Like-named read-outs stand apart in the source and are kept apart here.

Take `NP(=O)(OCC1=C(Br)C(=O)c2ccccc2C1=O)N(CCCl)CCCl` (centres unmarked) [Compound 15d, 2-(3-Bromo-1,4-naphthoquinonyl)methyl N,N-bis(2-chloroethyl)phosphorodiamidate]: the LC99 in the assay with HT-29 cells was found to be 4.1 µM; in the assay with BE cells, 3.3 µM.
As to `CC1=C(COP(N)(=O)N(CCCl)CCCl)C(=O)c2ccccc2C1=O` (centres unmarked) [Compound 15b, 2-(3-Methyl-1,4-naphthoquinonyl)methyl N,N-bis(2-chloroethyl) phosphorodiamidate], the LC99 was 2.1 µM in the assay with HT-29 cells and 1.0 µM in the assay with BE cells.
As for `CC1=C(COP(=O)(N(C)CCBr)N(C)CCBr)C(=O)c2ccccc2C1=O` [Compound 40b, 2-(3-Methyl-1,4-naphthoquinonyl)methyl bis[N-methyl-N-(2-bromoethyl)] phosphorodiamidate], the values for the LC99 with HT-29 cells and in the assay with BE cells were 1.5 µM and 0.44 µM, respectively.
`COC1=CC(=O)c2c(cc(COP(N)(=O)N(CCBr)CCBr)n2C)C1=O` (centres unmarked) [Compound 6b, 2-(5-Methoxy-1-methyl-4,7-indolequinonyl)methyl N,N-bis(2-bromoethyl)phosphorodiamidate]: the “IC50 values in words” value with PaCa-2 (pancreas) and in the assay with UMUC3 (bladder) was “low nanomolar range” each time. In addition, the IC50 in the assay with PaCa-2 (pancreas) is 35 nM; in the assay on A498 (kidney) it was 199 nM; with UMUC3 (bladder), 1 nM; in the assay with PC-3 (prostate) it was 195 nM; in the assay on MDA231 (breast) (MDA231, 72-h drug exposure) it was 1630 nM; in the assay on IGROV (ovarian), 1470 nM. Besides, the figures for the IC50 in the assay on A549 (lung) and in the assay on HT-29 (colon) were 9 nM and 61 nM, respectively.
With `COC1=CC(=O)c2c(c(COP(=O)(N(C)CCBr)N(C)CCBr)cn2C)C1=O` [Compound 47, 3-(5-Methoxy-1-methyl-4,7-indolequinonyl)-methyl bis[N-methyl-N-(2-bromoethyl)] phosphorodiamidate], the IC50 in the assay with PaCa-2 (pancreas) (Homo sapiens) is 25 nM; with A498 (kidney) (Homo sapiens), 344 nM; in the assay with UMUC3 (bladder) (Homo sapiens) it was 2 nM; in the assay on PC-3 (prostate) (Homo sapiens), 66 nM; in the assay with MDA231 (breast) (setting [1]), 40 nM; with IGROV (ovarian) (Homo sapiens) it was 494 nM. Also, the results for the IC50 with A549 (lung) (Homo sapiens) and in the assay with HT-29 (colon) (Homo sapiens) were 23 nM and 65 nM, respectively. For the same molecule, the “IC50 values in words” value in the assay on PaCa-2 (pancreas) and in the assay on UMUC3 (bladder) was “low nanomolar range” each time. For the same molecule, the LC99 came out at 0.07 µM with HT-29 cells and 0.14 µM in the assay on BE cells.
In the case of `CC1=C(COP(N)(=O)N(CCBr)CCBr)C(=O)c2ccccc2C1=O` (centres unmarked) [Compound 16b, 2-(3-Methyl-1,4-naphthoquinonyl)methyl N,N-bis(2-bromoethyl) phosphorodiamidate], the LC99 in the assay on HT-29 cells was determined as 1.7 µM; in the assay with BE cells, 1.2 µM.
`COC1=CC(=O)c2c(cc(COP(=O)(N(C)CCBr)N(C)CCBr)n2C)C1=O` [Compound 5, 2-(5-Methoxy-1-methyl-4,7-indolequinonyl)methyl bis[N-methyl-N-(2-bromoethyl)]phosphorodiamidate]: the IC50 came out at 13 nM with PaCa-2 (pancreas) (Homo sapiens); 2650 nM with A498 (kidney) (Homo sapiens); 14 nM in the assay with UMUC3 (bladder) (Homo sapiens); 420 nM in the assay on PC-3 (prostate) (Homo sapiens); 210 nM in the assay on MDA231 (breast) (setting [1]); 7590 nM with IGROV (ovarian) (Homo sapiens). Also, the figures for the half-maximal inhibitory concentration (IC50) in the assay on A549 (lung) (Homo sapiens) and in the assay with HT-29 (colon) (Homo sapiens) were 260 nM and 93 nM, respectively. In addition, the “IC50 values in words” value in the assay on PaCa-2 (pancreas) and in the assay with UMUC3 (bladder) was “low nanomolar range” throughout.
On to “3-(5-Methoxy-1-methyl-4,7-indolequinonyl)methyl N,N-bis(2-bromoethyl)phosphorodiamidate [Compound 4]”, for which the IC50 is 215 nM with PaCa-2 (pancreas); 998 nM with A498 (kidney); 10 nM with UMUC3 (bladder); 649 nM in the assay on PC-3 (prostate); 194 nM in the assay on MDA231 (breast) (MDA231, 72-h drug exposure); 398 nM in the assay on A549 (lung). Further, the IC50 in the assay on HT-29 (colon) amounted to 241 nM.
Regarding `COC1=CC(=O)c2c(cc(COP(N)(=O)N(CCCl)CCCl)n2C)C1=O` (centres unmarked) [Compound 6a, 2-(5-Methoxy-1-methyl-4,7-indolequinonyl)methyl N,N-bis(2-chloroethyl)phosphorodiamidate], the “IC50 values in words” value in the assay on PaCa-2 (pancreas) and in the assay with UMUC3 (bladder) was “low nanomolar range” in each case. For the same molecule, the IC50 in the assay with PaCa-2 (pancreas) was 6 nM; in the assay with A498 (kidney) it was 862 nM; in the assay with UMUC3 (bladder) it was 22 nM; in the assay with PC-3 (prostate) it was 170 nM; in the assay with MDA231 (breast) (MDA231, 72-h drug exposure) it was 3500 nM; with IGROV (ovarian) it was 1700 nM. In addition, the concentration for half-maximal inhibition (IC50) in the assay on A549 (lung) is 203 nM; in the assay on HT-29 (colon), 340 nM.
On to `CN(CCCl)P(=O)(OCC1=CC(=O)c2ccccc2C1=O)N(C)CCCl` [Compound 40c, 2-(1,4-Naphthoquinonyl)methyl bis[N-methyl-N-(2-chloroethyl)]phosphorodiamidate], for which the LC99 with HT-29 cells was 4.5 µM; in the assay on BE cells it was 2.8 µM.
In the same order, the values of `CSC1=C(COP(N)(=O)N(CCCl)CCCl)C(=O)c2ccccc2C1=O` (centres unmarked) [Compound 15c, 2-(3-Thiomethyl-1,4-naphthoquinonyl)methyl N,N-bis(2-chloroethyl)phosphorodiamidate] are 4.2 µM and 5.9 µM.
`O=C1C=C(COP(=O)(NCCCl)NCCCl)C(=O)c2ccccc21` [Compound 17, 2-(1,4-Naphthoquinonyl)methyl bis[N-(2-chloroethyl)] phosphorodiamidate]: the LC99 with HT-29 cells was determined as 14 µM; in the assay with BE cells, 7.8 µM.
`CN(CCBr)P(=O)(OCC1=CC(=O)c2ccccc2C1=O)N(C)CCBr` [Compound 40a, 2-(1,4-Naphthoquinonyl)methyl bis[N-methyl-N-(2-bromoethyl)]phosphorodiamidate]: the IC50 with PaCa-2 (pancreas) was 2300 nM; with A498 (kidney) it was 4460 nM; in the assay with UMUC3 (bladder), 9950 nM; with PC-3 (prostate) it was 2560 nM; in the assay with MDA231 (breast) (MDA231, 72-h drug exposure) it was 3230 nM; with IGROV (ovarian), 2050 nM. Besides, the results for the IC50 in the assay on A549 (lung) and with HT-29 (colon) were 11200 nM and 5920 nM, respectively. Moreover, the LC99 turned out to be 4.5 µM in the assay on HT-29 cells and 1.2 µM in the assay with BE cells. For the same molecule, the “IC50 in words, against all cell lines” value in the assay on human tumor cell lines was “low micromolar range”.
